The experiment relates to S. Typhi PhoP-promoter GFP reporter, fluorescence, 4 h. As to the kind of experiment: modified counter assay using GFP fluorescence, PhoP regulon inhibitor project, dose response (AID 1985).

The results in this text go back to PubChem BioAssay AID1985 (Southern Research Specialized Biocontainment Screening …, 2009).

Molecules are shown by their SMILES. Values joined by “and” are separate entries in the source; they are usually repeats but may differ in a detail not shown here. Identical values can stand only once.

Broadly, the IC50 is the concentration that inhibits the measured activity by half. On to `COC(=O)N/N=C/c1c[n+]([O-])c2ccccc2[n+]1[O-]`, for which the IC50 was 101 µM. With `CCCCC(=O)NC(=S)NNC(=O)CC` the figure was 50.2 µM. In the case of `CCCCCNC(=O)c1cn(CC)c2cc(N3CCN(C)CC3)c(F)cc2c1=O` it was 80.1 µM; in that of `Cc1ccccc1C(=O)N/N=C/c1ccc([N+](=O)[O-])s1`, 29 µM. Take `O=C(CCNC(=O)c1ccco1)Nc1ccc(SC(F)F)cc1`: the IC50 was 74.7 µM. With `CCn1cc(C(=O)O)c(=O)c2ccc(C)nc21` the figure was 76.6 µM; with `O=C(N/N=C/c1cc(Br)ccc1O)c1ccncc1`, 29.9 µM; with `O=C(NC(=S)NNC(=O)c1cccs1)c1ccco1`, 39.7 µM. In the case of `O=[N+]([O-])c1cc(Cl)cc(/C=N/NC(=S)Nc2ccc(S(=O)(=O)N3CCOCC3)cc2)c1O` it was 46.3 µM. `O=C(Nc1ccccc1)c1ccc2nsnc2c1`: the IC50 is under 0.23 µM. In the case of `C#CCOCCOCCOCCNc1nc(N2CCN(C(=O)CCCCCCCCCCNC(=O)[C@H](CCCCN)n3cc(C[C@@H](C)CC)nn3)CC2)nc(N2CCN(C(=O)CCCCCCCCCCNC(=O)[C@H](CCCN=C(N)N)n3cc(C[C@@H](C)CC)nn3)CC2)n1`, the IC50 is 68.2 µM. With `OC1CCCN(Cc2ccc3ccc4cccc5ccc2c3c45)C1` (configuration not stated), the half-inhibitory concentration (IC50) was 118 µM. Take `O=C(CCN1CCN(c2ccccc2F)CC1)c1ccc(Br)cc1`: the IC50 was 43.4 µM.

With `O=C(N/N=C/c1c[nH]c2ccccc12)c1cc2ccccc2o1`, the IC50 was 33.5 µM. With `Cc1cc(NC(=O)c2ccccc2)sc1C` the figure was 84.3 µM; with `CNc1nc(SC)n(C)c(=O)c1N=O`, 80.3 µM; with `CC(=O)Oc1ccccc1C(=O)Nc1ncc([N+](=O)[O-])s1`, 149 µM. As for `COc1cc(/C=N/NC(=O)c2cncc(Br)c2)cc([N+](=O)[O-])c1O`, the IC50 was under 0.23 µM.

Turning to `COc1cc(Br)cc(/C=N/c2ncn[nH]2)c1O`, the 50% inhibitory concentration (IC50) was 81.3 µM. On to `CC[C@H]1OC(=O)[C@H](C)[C@@H](O[C@H]2C[C@@](C)(OC)[C@@H](O)[C@H](C)O2)[C@H](C)[C@@H](O[C@@H]2O[C@H](C)C[C@H](N(C)C)[C@H]2O)[C@](C)(OC)C[C@@H](C)C(=O)[C@H](C)[C@@H](O)[C@]1(C)O`, for which the IC50 is 125 µM.

As to `C/C(O)=C\c1nc2ccccc2oc1=O`, the IC50 is 14.9 µM. In the case of `CCCCCCCCCCCCCCCC[N+](C)(C)CCN(Cc1ccc(OC)cc1)c1ncccn1` it was 23.9 µM. With `N=c1n(CCN2CCCCC2)c2ccccc2n1CC(O)c1ccc(Cl)c(Cl)c1` (configuration not stated), the IC50 was 64.1 µM. Take `O=C(Cn1nc(C(F)F)cc1C(F)F)NNC(=S)Nc1ccc([N+](=O)[O-])cc1`: the IC50 is 64.2 µM. Take `CCn1cc(C(=O)O)c(=O)c2cc(F)c(N3CCN(C)CC3)cc21`: the IC50 is 0.427 µM. In the case of `C[C@H]1COc2c(N3CCN(C)CC3)c(F)cc3c(=O)c(C(=O)O)cn1c23`, the IC50 is under 0.23 µM. In the case of `O=C(Cc1ccccc1)NNC(=S)NC(=O)c1cccs1` it was 37.5 µM; in that of `COc1cccc(CNCCc2c[nH]c3ccccc23)c1OCc1ccccc1`, 150 µM. `O=C(N/N=C/c1ccccc1O)C1SCCCS1`: the IC50 is 82.7 µM. For the molecule `O=C(Nc1ccccc1)Oc1ccc[nH]c1=O`, the IC50 was 55.8 µM.

For `NC(N)=Nc1nc(-c2ccccc2)c2cc(Cl)ccc2n1`, the IC50 is 97.8 µM.

Regarding `CCCCCCCCCCOC(=O)Cn1c(COc2cccc(C)c2)[n+](C)c2ccccc21`, the IC50 was 15.9 µM.

As for `O=C(Nc1ccc(-c2nc3ccccc3[nH]2)cc1)c1ccco1`, the IC50 is 87 µM. With `O=C(Nc1ccccc1)Nc1nccs1` the figure was 128 µM; with `OC(CNCCc1ccc(Cl)cc1)COc1cc(Cl)ccc1Cl` (configuration not stated), 36.6 µM; with `CN(C)CCCNc1c2ccccc2nc2ccccc12`, 64.3 µM. `Cc1cc(C)n2nc(S(=O)(=O)Nc3c(Cl)cccc3Cl)nc2n1`: the concentration for half-maximal inhibition (IC50) is 11.1 µM. For the molecule `COc1ccc(/C=N/Nc2cc(C)nc3ccc(Br)cc23)cc1`, the concentration for half-maximal inhibition (IC50) is 46.2 µM. For `NC1=NC[C@H](c2ccccc2)N1CCc1cc(C(F)(F)F)cc(C(F)(F)F)c1`, the IC50 was 55.9 µM. As to `NC(=O)SCC(=O)Nc1ccc(Cl)c(Cl)c1`, the IC50 was 52.2 µM.

Consider `O=C(CSc1nnc(-c2ccccc2)n1-c1ccc(Cl)cc1)NC1CCS(=O)(=O)C1` (configuration not stated), for which the half-maximal inhibitory concentration (IC50) is 31.2 µM. For the molecule `Cc1ccc2sc(N(CCCN(C)C)C(=O)c3ccc(Br)s3)nc2c1C`, the IC50 is 120 µM. `O=[N+]([O-])c1ccc(/C=N/NC(=S)Nc2ccc(Cl)cc2Cl)s1`: the IC50 is 25 µM. As for `O=[N+]([O-])c1cc(/C=N/Nc2nc3ccccc3[nH]2)c(O)cc1O`, the IC50 was 24.8 µM.

For `O=C(/C=C/c1ccccc1)c1ccc(NC2=NCCCS2)cc1`, the IC50 is 117 µM. In the case of `CCC(=O)N1CCN(c2cc3c(cc2F)c(=O)c(C(=O)O)cn3CC)CC1`, the half-inhibitory concentration (IC50) was 126 µM. With `COc1ccc(N2C(=O)CC(N3CC=C(c4ccccc4)CC3)C2=O)cc1` (configuration not stated), the concentration for half-maximal inhibition (IC50) is 82.4 µM.

`CN1CCN(CCCN2c3ccccc3Sc3ccc(Cl)cc32)CC1`: the IC50 was 132 µM and 79.2 µM. In the case of `CN(C)c1ccc(Nc2nc(N)c3ccccc3n2)cc1`, the 50% inhibitory concentration (IC50) is 62.4 µM. Take `CNC[C@H](Cc1ccccc1)NC[C@@H](Cc1cccc2ccccc12)NCCc1ccc(C)cc1`: the concentration for half-maximal inhibition (IC50) was 19.6 µM.

For the molecule `O=C(CSc1nnc(-c2cccnc2)n1Cc1ccco1)c1ccc2ccccc2c1`, the IC50 was under 0.23 µM.

Turning to `CN1CCN(C2=Cc3ccccc3Sc3cc(F)c(Cl)cc32)CC1`, the IC50 was 106 µM. On to `COc1cc(C(=O)O/N=C2\C=CC(=O)C(C)=C2)cc(OC)c1OC`, for which the IC50 was 131 µM. Regarding `Oc1ccccc1C(Nc1nccs1)c1ccc2cccnc2c1O` (configuration not stated), the IC50 is 34.8 µM. For the molecule `Cc1cc(NC2CCCCC2)nc(NCc2ccccc2)n1`, the IC50 was 77.9 µM. In the case of `Cc1ccc(NC(=O)CSC(N)=O)cc1Cl`, the IC50 is 33.4 µM. In the case of `OC(c1cc(C(F)(F)F)nc2c(C(F)(F)F)cccc12)C1CCCCN1` (configuration not stated) it was 37.6 µM. `NC1=NC[C@H](Cc2ccc(O)cc2)N1CCC12CC3CC(CC(C3)C1)C2`: the IC50 was 95 µM. Take `O=S1(=O)Nc2c(ccc3cccnc23)-c2ccccc21`: the half-maximal inhibitory concentration (IC50) was 1.17 µM. With `CCn1nnc(NC(=O)c2ccc([N+](=O)[O-])o2)n1`, the IC50 is 28.4 µM. Regarding `Oc1[nH]c2ccccc2c1N=NC(=S)N1CCOCC1`, the half-maximal inhibitory concentration (IC50) is 17.4 µM. Regarding `O=C(N/N=C\c1c[nH]c2ccccc12)c1ccc(O)cc1`, the IC50 is 134 µM. On to `CN1CCN(C2=Cc3cc(Cl)ccc3Sc3cc(F)ccc32)CC1`, for which the IC50 was 137 µM.

`CCCCOc1ccc(NC2=NC3(CCCC3)N=C(N)N2)cc1`: the IC50 is 72.9 µM.

For `Cc1ccc(C(=O)N/N=C\c2ccc([N+](=O)[O-])s2)cn1`, the IC50 is 20 µM. For `Cc1cc(N/N=C/c2ccc(O)cc2)c2cccc(C)c2n1`, the IC50 was 80.9 µM.

Turning to `C=CCn1c(NS(=O)(=O)c2ccccc2)c(S(=O)(=O)c2ccc(C)cc2)c2nc3ccccc3nc21`, the IC50 was 135 µM.

As for `O=[N+]([O-])c1ccc(/C=[N+](\[O-])CCO)o1`, the IC50 was 33.6 µM. With `C#CCOCCOCCOCCNc1nc(N2CCN(C(=O)CCCCCCCCCCNC(=O)[C@H](CCCCN)n3cc(CCO)nn3)CC2)nc(N2CCN(C(=O)CCCCCCCCCCNC(=O)[C@H](CCCN=C(N)N)n3cc(C[C@@H](C)CC)nn3)CC2)n1` the figure was 56.8 µM; with `OC(CNCc1ccco1)Cn1c2ccc(Br)cc2c2cc(Br)ccc21` (configuration not stated), 28 µM. For the molecule `C[C@H]1c2cccc(O)c2C(O)=C2C(=O)[C@]3(O)C(O)=C(C(N)=O)C(=O)[C@@H](N(C)C)C3[C@@H](O)C21` (some centres not stated), the IC50 was 1.19 µM.

Consider `COc1ccc(Cc2nnc(N/N=C/c3ccc(O)cc3)[nH]c2=O)cc1OC`, for which the IC50 is 54.8 µM. With `CC[N+](C)(CC)CCC[n+]1c(-c2ccccc2)c2cc(N)ccc2c2ccc(N)cc21`, the IC50 was 53.4 µM.

`Oc1ccc(CN2CCN(Cc3ccccc3)CC2)c2cccnc12`: the IC50 is 39.5 µM. On to `O=C(NC(=S)NNC(=O)c1cccs1)c1ccc(Br)o1`, for which the IC50 is 25.4 µM. For the molecule `C#CCOCCOCCOCCNc1nc(N2CCN(C(=O)[C@H](CCCCN)n3cc([C@@H](N)CC(C)C)nn3)CC2)nc(N2CCN(C(=O)[C@H](Cc3cc4ccccc4[nH]3)n3cc([C@@H](N)Cc4ccc(O)cc4)nn3)CC2)n1`, the half-inhibitory concentration (IC50) was 54.5 µM. Regarding `Cc1nonc1C(=O)N/N=C/c1ccc([N+](=O)[O-])o1`, the IC50 was 24.7 µM. With `Oc1c(CN2CCCCC2)cc(Br)c2cccnc12`, the IC50 is 19.8 µM. With `CCN1CCc2c(C#N)c(NCc3ccccc3)nc(NCCO)c2C1`, the concentration for half-maximal inhibition (IC50) was 140 µM. Consider `N#C/C(=N\Nc1ccc([N+](=O)[O-])cc1)C(N)=S`, for which the concentration for half-maximal inhibition (IC50) is 110 µM.

For the molecule `N#Cc1nc(Cc2cccc3ccccc23)oc1NCCCN1CCOCC1`, the IC50 was 62 µM. Regarding `Cc1cc(C)c(NC(=O)C[N+](C)(C)CC(O)COc2cccc3ccccc23)c(C)c1` (configuration not stated), the IC50 is 75.9 µM. In the case of `CCOC(=O)N/N=C(/C)c1ccc([N+](=O)[O-])o1` it was 45.8 µM. For the molecule `CCCCCC(=O)NNC(=S)NC(C)=O`, the IC50 is 22.9 µM. For `CCOC(=O)c1c(N)sc(C(=O)Nc2ccc3c(c2)OCO3)c1C`, the IC50 is 137 µM. On to `CCN1CCN(C(=O)c2cc3cc(Cl)ccc3[nH]2)CC1`, for which the IC50 was 67.4 µM. Take `C1=C(CCNc2ncnc3c2[nH]c2ccccc23)CCCC1`: the IC50 is 115 µM. Consider `O=C(Nc1ccc(Cc2ccncc2)cc1)c1ccc([N+](=O)[O-])o1`, for which the 50% inhibitory concentration (IC50) is 39.5 µM. As for `N=c1n(Cc2ccc(Cl)cc2)c2ccccc2n1CC(O)COc1ccccc1` (configuration not stated), the IC50 is 66.8 µM. Take `Cc1ccc2c(c1)c1c(n2CC(O)CNC2CCCCC2)CCCC1` (configuration not stated): the IC50 is 136 µM. On to `O=C(N[C@H](CO)[C@H](O)c1ccc([N+](=O)[O-])cc1)C(Cl)Cl`, for which the half-inhibitory concentration (IC50) is 2.71 µM.

On to `COc1ccc(NC(=O)COC(=O)c2ccc([N+](=O)[O-])o2)cc1Cl`, for which the IC50 is 46.8 µM. Regarding `COc1ccc(CCN2CCC(Nc3nc4ccccc4n3Cc3ccc(F)cc3)CC2)cc1`, the IC50 was 105 µM. For `CC[C@@H](C)[C@H](CN[C@H](CNC)C(C)C)NC[C@@H](C)c1ccc(CC(C)C)cc1`, the IC50 was 61 µM.

Turning to `COc1ccc(Cl)cc1S(=O)(=O)N1CCN(C(=O)c2ccco2)CC1`, the IC50 is 145 µM.

Regarding `Nc1nc(=S)c2[nH]cnc2[nH]1`, the IC50 is 6.3 µM. As for `Clc1cc(Br)ccc1OCCCNCc1ccccc1`, the IC50 was 45.5 µM.
